Assays:
Conditions in all cases: 72 h
KCL-22 [1] = assay: cell viability (% survival relative to DMSO control, bortezomib = 0%); higher = less cytotoxic
Method in brief: (§1)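 In 384-well plates pre-printed with compounds at 1, 10, 100, 1000 or 10000 nM, duplicate wells received cells from 10 AML and 5 CML lines at densities within the linear growth range. The plates stayed at 37 °C with 5% CO2 for 72 h before CellTiter-Glo luminescence was recorded. Each entry is averaged percent survival. Scaling placed vehicle at 100% and a 10 µM positive control at 0%.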

K-562 [2] = assay: as above
Method in brief: as §1

THP-1 [3] = assay: as above
Method in brief: as §1

ML-2 [4] = assay: as above
Method in brief: as §1

KG-1 [5] = assay: as above
Method in brief: as §1

HL-60 [6] = assay: as above
Method in brief: as §1

SHI-1 [7] = assay: as above
Method in brief: as §1

HEL [8] = assay: as above
Method in brief: as §1

MOLM-13 [9] = assay: as above
Method in brief: as §1

NOMO-1 [10] = assay: as above
Method in brief: as §1

MV4-11 [11] = assay: as above
Method in brief: as §1

KU-812 [12] = assay: as above
Method in brief: as §1

KCL-22 [13] = test system: KCL-22
Method in brief: (§2)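 Each of fifteen myeloid leukaemia cell lines was seeded in RPMI 1640 at a density titrated to its linear growth range. The cells were incubated for 72 h at 37 °C and 5% CO2 with compounds at five tenfold doses from 1 to 10,000 nM, in duplicate. After ATP luminescence was normalised to vehicle and to a positive control at 10 µM, four-parameter log-logistic curves were fitted. These curves gave the IC50.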

K-562 [14] = test system: K-562
Method in brief: as §2

Mono-Mac-6 = test system: Mono-Mac-6
Method in brief: as §2

THP-1 [15] = test system: THP-1
Method in brief: as §2

ML-2 [16] = test system: ML-2
Method in brief: as §2

KG-1 [17] = test system: KG-1
Method in brief: as §2

HL-60 [18] = test system: HL-60
Method in brief: as §2

BV-173 = test system: BV-173
Method in brief: as §2

SHI-1 [19] = test system: SHI-1
Method in brief: as §2

LAMA-84 = test system: LAMA-84
Method in brief: as §2

HEL [20] = test system: HEL
Method in brief: as §2

MOLM-13 [21] = test system: MOLM-13
Method in brief: as §2

NOMO-1 [22] = test system: NOMO-1
Method in brief: as §2

MV4-11 [23] = test system: MV4-11
Method in brief: as §2

KU-812 [24] = test system: KU-812
Method in brief: as §2

HL-60 [25] = assay: cell viability (% survival relative to DMSO control); higher = less cytotoxic
Method in brief: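 In 384-well plates, the full library was rescreened in duplicate on HL-60 cells in RPMI 1640 with 10% FBS, at 1–10,000 nM in five tenfold concentrations, for 72 h at 37 °C, 5% CO2. Each run also held DMSO or 100 nM of one of three metabolic inhibitors. Viability was measured by CellTiter-Glo and normalised to DMSO wells and to wells with proteasome inhibitor, present at 10 μM. Any area under the curve comes from four-parameter log-logistic fitting with drc and PharmacoGx.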

N#Cc1ccc(N(Cc2ccc(Br)cc2)n2cnnc2)cc1 [YM511]
cell viability [%]
Conditions	1 nM	10 nM	100 nM	1000 nM	10000 nM
HEL [8]	113	104	97.7	118	104
HL-60 [6]	104	76.2	102	117	101
K-562 [2]	107	104	97	115	99.3
KCL-22 [1]	111	97.9	106	102	99.6
KG-1 [5]	99.3	105	90.2	118	92.1
KU-812 [12]	95.9	99.6	89.3	102	92.7
ML-2 [4]	105	108	106	107	98.5
MOLM-13 [9]	131	99.5	91.6	105	94.5
MV4-11 [11]	98.9	93.6	115	106	98.9
NOMO-1 [10]	103	104	98.4	104	96.2
SHI-1 [7]	117	103	95.7	103	102
THP-1 [3]	99.3	103	93.4	105	91.9

Conditions	IC50 (cell viability) [µM]
BV-173	> 10
HEL [20]	> 10
HL-60 [18]	> 10
K-562 [14]	> 10
KCL-22 [13]	> 10
KG-1 [17]	> 10
KU-812 [24]	> 10
LAMA-84	> 10
ML-2 [16]	> 10
MOLM-13 [21]	> 10
MV4-11 [23]	> 10
Mono-Mac-6	> 10
NOMO-1 [22]	> 10
SHI-1 [19]	> 10
THP-1 [15]	> 10

cell viability [%], HL-60 [25]
Conditions	0.001 µM	0.01 µM	0.1 µM	1 µM	10 µM
co-treatment: AZD3965 100 nM	83.2	106	102	95.3	96.88
co-treatment: DMSO vehicle	96.8	102	101.39	101	104
co-treatment: GSK2194069 100 nM	96.8	81	105	97.49	102
co-treatment: pictilisib 100 nM	88.1	79.9	99.6	92.9	95.3

N#C/C(=C\c1ccc(O)cc1)C(=O)O [alpha-cyano-4-hydroxycinnamic acid]
cell viability [%]
Conditions	1 nM	10 nM	100 nM	1000 nM	10000 nM
HEL [8]	99.3	114	118	113	116
HL-60 [6]	79.6	78.6	113	99.5	83.1
K-562 [2]	101	72.2	95.4	103	91
KCL-22 [1]	98.3	97.6	103	94	92
KG-1 [5]	101	96.7	103	99.2	103
KU-812 [12]	97.9	114	89.3	87.4	105
ML-2 [4]	92.4	101	96.2	95.8	94.5
MOLM-13 [9]	97.7	99.7	104	99.1	85.2
MV4-11 [11]	100	95.3	95.7	100	101
NOMO-1 [10]	99.5	96.2	106	104	97.3
SHI-1 [7]	99.9	97	95.1	97.3	86.6
THP-1 [3]	95.5	98.3	98.3	87.5	93.2

Conditions	IC50 (cell viability) [µM]
BV-173	> 10
HEL [20]	> 10
HL-60 [18]	> 10
K-562 [14]	> 10
KCL-22 [13]	> 10
KG-1 [17]	> 10
KU-812 [24]	> 10
LAMA-84	> 10
ML-2 [16]	> 10
MOLM-13 [21]	> 10
MV4-11 [23]	> 10
Mono-Mac-6	> 10
NOMO-1 [22]	> 10
SHI-1 [19]	> 10
THP-1 [15]	> 10

cell viability [%], HL-60 [25]
Conditions	0.001 µM	0.01 µM	0.1 µM	1 µM	10 µM
co-treatment: AZD3965 100 nM	99.4	101	102.35	101	101
co-treatment: DMSO vehicle	98.9	98.8	95.79	99.8	98.6
co-treatment: GSK2194069 100 nM	101	103	98.6	97.5	95.5
co-treatment: pictilisib 100 nM	90.3	99.16	95.5	94.7	91.3

— the supplement of paper PMC8671470
